# Experimental data from patent publication US20080300299A1, “Application of Eriocalyxin B in the Manufacture of Medicaments For Treating Leukemia” (Rui Jin Hospital Affiliated to Shanghai Second Medical …, priority 2005, published 2008).
# Where “and” joins values, the source holds several entries; their conditions need not be identical. Identical values can stand only once.
# Columns and labels:
# Kasumi-1 cells [1] = assay: Annexin V-FITC/PI apoptosis flow cytometry; assay type: cell-based, human; conditions: 0.5 μM EriB
# Method: (§1) (IV) Flow cytometric for annexin-V, cell cycle, mitochondrial transmembrane potential and reactive oxygen species (ROS) generation: Cell apoptosis was analyzed using an ApoAlert Annexin V-FITC Apoptosis kit (BD). In the process of analyzing the cell cycle, the cells were fixed overnight in methanol at −20° C., followed by treatment of Tris-HCl buffer (pH 7.4) comprising 1% RNase, 50 μg/ml PI staining. In the detection of mitochondrial transmembrane potential, the cells were washed with PBS, incubated at 37° C. and with […] Rh123 for 30 minutes, and then staining with 50 μg/ml PI. DCFH-DA was used to detect ROS levels, thus the cells were washed with PBS, and incubated at 37° C. and with […] DCFH-DA for 30 minutes. Fluorescence intensity was measured by flow cytometry.
# Kasumi-1 cells [2] = assay: ROS level flow cytometry; assay type: cell-based, human
# Method: as §1
# Kasumi-1 cells [3] = assay: Mitochondrial transmembrane potential (Rh123 flow cytometry); assay type: cell-based, human
# Method: as §1
# Bcl-XL = assay: Western blot and RT-PCR of Bcl-XL in Kasumi-1 cells; assay type: cell-based, human; conditions: EriB 24 and 48 hours
# Method: (§2) (VII) Western Blot analysis: lysing 5×10^6 cells with 200 μl Laemmli lysis buffer (0.5M Tris-HCl, pH 6.8, 2 mM EDTA, 10% glycerol, 2% SDS and 5% β-mercaptoethanol). Protein lysate (20 μg) was used on 10% polyacrylamide gel electrophoresis, and then transferred to nitrocellulose membranes. Nitrocellulose membranes were blocked with TBS/0.05% Tween 20 5% skim (nonfat) milk, and afterwards, incubated with primary antibody for two hours at room temperature, and incubated with horseradish peroxidase labeled IgG for one hour. The Immunocomplexes were detected with chemiluminescence horseradish peroxidase detection kit. The signal intensities of the respective bands were analyzed with Quantity One version 4.1.1 software.
# (§3) (IX) Semi-quantitative reverse transcription-PCR (RT-PCR): the total RNA was extracted using Trizol (Invitrogen). Random hexamers and Superscript II (Invitrogen) ART were used for reverse transcribed into cDNA. The present invention utilized the following primers: […]
# NF-κB [4] = assay: NF-κB luciferase report assay in Kasumi-1 cells; assay type: cell-based, human; conditions: pre-treatment with EriB for one hour, then TNF-α four hours
# Method: (§4) (X) Luciferase report assay: Kasumi-1 cells were resuspended in cultured medium, added the gene vector [10 μg, NF-κB-mediated luciferase reporter plasmid or pAP1-luc (Clontech), and 2 μg of β-galactosidase enzyme expression plasmid for correcting cell transfection efficiency of the CMV-mediated. Cell transfection conditions were: 1000V, 25 μF, and the instrument came from the Bio-Rad Laboratories, Inc. Transfections after 36 hours, the cells were treated with EriB and/or TNFα, and then the cells were lysed. Luciferase activity was measured by lumat LB 9507 tube luminometer (EG&G Berthold). Cell lysates were mixed with 2×β-half-galactosidase reaction reagents, after incubated for one hour at 37° C., the termination of reaction by adding 1 M Na2CO3. The β-galactosidase enzyme absorbance values were measured at 420 nm by spectrophotometer.
# Kasumi-1 cells [5] = assay: Cell cycle analysis (nuclear DNA content, PI); assay type: cell-based, human; conditions: 0.25 μM EriB for 6, 12, 24 and 48 hours
# Method: as §1
# Bax = assay: Western blot and RT-PCR of Bax in Kasumi-1 cells; assay type: cell-based, human; conditions: EriB 24 and 48 hours
# Method: as §2, §3
# Kasumi-1 cells [6] = assay: Cell survival (trypan blue dye-exclusion); assay type: cell-based, human; conditions: 48 hours
# Excerpt: (§5) (II) Cell culture, cell survival and cell morphology: the present invention utilized the following human cell lines: AML leukemia with t(8;21) chromosomal translocation Kasumi-1 cell lines, which is also known as acute myeloid leukemia comprising AML1-ETO fusion gene; acute promyelocytic leukemia NB4, NB4/R1 and NB4/R2 cell lines, and acute myeloid leukemia U937 cell lines; Burkitt's lymphoma (Raji and Daudi) cell lines; T-cell acute lymphoblastic leukemia (Jurkat) cell lines. The present invention studied by collecting primary leukemia cells from five AML patients with t(8;21). The diagnoses of patients were established on the bases of morphological examination, cytogenetics study detection of t(8;21) chromosomal translocation, and RT-PCR detection of AML1-ETO fusion protein. Leukemia cells were prepared in the following conditions: separated with Lymphocyte Separation Medium, further isolated and cultured in RPMI-1640 medium (Gibco/BRL), in addition, added 10% FBS (PAA) in 5% CO2-95% air and saturated humidity, and at 37° C. In each experiment, cell inoculation density is 2×10^5/ml. The survival rate of cells was accessed using trypan blue dye-exclusion experiments. Cell observations were done by using the Wright's staining method.
# caspase-3 = assay: Western blot of caspase-3 activation and PARP; assay type: cell-based, human; conditions: EriB; Kasumi-1, NB4 and NB4/R2 cells
# Jurkat cells = assay: MTT cell growth inhibition; assay type: cell-based, human; conditions: 72 hours
# Excerpt: as §5
# (§6) (III) MTT experiment: cells were treated with EriB at concentrations of 0.1, 0.25, 0.5, 1, 2, 4, 6, 8 and 10 μM in a 96-hole plate. After 72 hours, 0.1 mg MTT was added to each hole, incubated at 37° C. for four hours later, absorbance values were measured at 570 nm by spectrophotometer.
# Raji cells = assay: MTT cell growth inhibition; assay type: cell-based, human; conditions: 72 hours
# Excerpt: as §5, §6
# U937 cells = assay: MTT cell growth inhibition; assay type: cell-based, human; conditions: 72 hours
# Excerpt: as §5, §6
# NB4/R1 cells = assay: MTT cell growth inhibition; assay type: cell-based, human; conditions: 72 hours
# Excerpt: as §5, §6
# NB4 cells = assay: MTT cell growth inhibition; assay type: cell-based, human; conditions: 72 hours
# Excerpt: as §5, §6
# NB4/R2 cells = assay: MTT cell growth inhibition; assay type: cell-based, human; conditions: 72 hours
# Excerpt: as §5, §6
# Daudi cells = assay: MTT cell growth inhibition; assay type: cell-based, human; conditions: 72 hours
# Excerpt: as §5, §6
# AP-1 = AP-1 luciferase report assay in Kasumi-1 cells; assay type: cell-based, human; conditions: 0.5 μM EriB for 4 hours
# Method: as §4
# ERK1/2 = assay: Western blot of phosphorylated ERK1/2 in Kasumi-1 cells; assay type: cell-based, human; conditions: EriB 12 and 24 hours
# Method: as §2
# [7] = system: MigA/Etr cells expressing C-terminal truncated AML1-ETO; assay: C57 murine model of t(8;21) leukemia; assay type: in vivo, mice; conditions: for median survival time: control 25 days, P<0.001
# Method: (XII) Leukemia murine model: female C57 mice and nude mice (5-6 weeks) were bred in special pathogen-free environment. C57 mice received 400 cGy from a high-energy linear accelerator at the dose rate of 100 cGy per minute. After 24 hours, the C57 mice were injected with 3×10^6 Mig/Etr cells expressing carbon-terminal truncated AML1-ETO of 0.2 ml PBS via tail vein intravenous injection. Treatments (12 mice in each group) were started five days after injection of leukemia cells. The control group and the EriB treated group, all respectively receive EriB (1.25, or 2.5 mg/kg, intraperitoneal injection for two weeks) and diluents (1% Pluronic F68).
# EriB efficacy in the treatment of murine models. C57 mice were irradiated by lethal dose (LD)50 and injected via tail vein intravenously with 3×10^6 MigA/Etr cells expressing of C-terminal truncated AML1-ETO (day 0). Beginning on day 5, intraperitoneal injection of EriB ([…]) for two weeks. The overall survival rate was measured and calculated started from day 0 to the date of death. All the mice eventually develop symptoms of anemia and difficulty breathing, and also the occurrence of a large number of primitive blood cells in the peripheral blood.
# [8] = system: human malignant hematopoietic cell; assay: MTT cell growth inhibition, whole panel; assay type: cell-based; conditions: all cell lines tested
# Excerpt: as §5, with “The survival rate of cells was accessed using trypan blue dye-exclusion experiments. Cell observations were done by using the Wright's staining method.” left out
# as §6
# HL60 cells = assay: MTT cell growth inhibition; assay type: cell-based, human; conditions: 72 hours
# Method: as §6
# NF-κB [9] = assay: Gel electrophoresis shift assay (EMSA) of NF-κB DNA binding; assay type: cell-based, human; conditions: EriB added one hour before TNF-α
# Method: (XI) Gel electrophoresis shift assay: nucleoprotein extracts of Kasumi-1 cells were quantitatively determined by using Coomassie plus reagent (Pierce). Nucleoprotein (10 μg) and ^32P marked double-stranded NF-κB (5′-[…]-3′) were sequentially incubated, and then […] using 4% of non-denaturing PAGE gel; the marked bands were detected by using autoradiography.
# Bcl-2 = assay: Western blot and RT-PCR of Bcl-2 in Kasumi-1 cells; assay type: cell-based, human; conditions: EriB 24 and 48 hours
# Method: as §2, §3
# [10] = system: primary leukemia cells from patients with t(8;21); assay: Growth inhibition of primary leukemia cells (trypan blue exclusion); assay type: cell-based, human; conditions: 0.1 and 0.25 μM EriB, all five patients
# Excerpt: as §5
# NF-κB (P65) = assay: Immunofluorescence of P65 nuclear translocation in Kasumi-1 cells; assay type: cell-based, human; conditions: pretreatment with EriB for one hour, 100 ng/ml TNF-α four hours
# Method: (VI) Immunofluorescence: the cells were fixed in methanol for five minutes at −20° C., after being washed with PBS, treated by 0.5% Triton-X-permeability, blocked with 1% BSA, and incubated with anti-P65 antibody at room temperature for one hour; after being washed again with PBS and incubated with the fluorescent-label IgG at room temperature for 30 minutes. The cells were incubated with Hochest 33258 for five minutes later, and observations were proceeded under the fluorescent microscope.
# Kasumi-1 cells [11] = assay: Differentiation associated antigen expression; assay type: cell-based, human; conditions: 0.1 and 0.25 μM EriB for seven days
# AML1-ETO fusion protein = assay: Western blot of AML1-ETO (anti-ETO antibody) in Kasumi-1 cells; assay type: cell-based, human; conditions: EriB 24 and 48 hours
# Method: as §2
# Kasumi-1 cells [12] = assay: Kasumi-1 xenograft tumor model in nude mice; assay type: in vivo; conditions: EriB 2.5 mg/kg intraperitoneal, day 10 to day 19; P<0.05
# Method: Another xenograft tumor model was established through subcutaneous injection in nude mice of 3×10^7 Kasumi-1 cells (day 0). The incubation period of tumor formation at the site of injection was about 8-12 days. Beginning from day 10, the mice were treated with EriB (2.5 mg/kg) by intraperitoneal injection only until day 19.
structure (smiles),measurement,setting,value
"COC(=O)CC[C@H](NC(=O)[C@H](CC(=O)OC)NC(=O)OCc1ccccc1)C(=O)N[C@H](C(=O)N[C@@H](CC(=O)OC)C(=O)CF)C(C)C [Z-DEVD-fmk, reference compound]",effect on rate of EriB-induced apoptosis (annexin V positive cell proportion),Kasumi-1 cells [1]; 40 μM Z-DEVD-fmk pre-treatment one hour,only partially reduced
"O[C@H](CS)[C@H](O)CS (racemic) [DTT, dithiothreitol, reference compound]",ROS level,Kasumi-1 cells [2]; 0.2 mM DTT and EriB jointly incubated,has not changed
same,effect on EriB-induced apoptosis (Rh123),Kasumi-1 cells [3]; 0.2 mM DTT with 0.5 μM EriB,completely inhibit
"C=C1C(=O)[C@]23C[C@H]1CC[C@H]2[C@@]12CO[C@]3(O)[C@@H](O)[C@@H]1C(C)(C)C=CC2=O [EriB, Eriocalyxin B]",Bcl-XL protein and mRNA levels,Bcl-XL,have decreased
same,base luciferase activity and TNF-α-induced NF-κB activity,NF-κB [4],have been blocked
same,proportion of sub-G1 cells,Kasumi-1 cells [5],higher proportion of sub-G1
same,Bax expression,Bax,have not changed significantly
same,cell death,Kasumi-1 cells [6]; 0.25 μM EriB,42.7±6.5%
same,cell death,Kasumi-1 cells [6]; 0.75 μM EriB,90.5±4.3%
same,caspase-3 activation,caspase-3,activated
same,IC50,Jurkat cells,> 1500 nM
same,IC50,Raji cells,> 1500 nM
same,IC50,U937 cells,1000 nM
same,IC50,NB4/R1 cells,< 1000 nM and 1000 nM
same,IC50,NB4 cells,< 1000 nM and 500 nM
same,IC50,NB4/R2 cells,< 1000 nM and 500 nM
same,IC50,Daudi cells,> 1500 nM
same,AP-1 luciferase activity increase,AP-1,about three
same,ERK1/2 phosphorylation level,ERK1/2,rapidly decreased
same,median survival time,[7]; EriB 1.25 mg/kg intraperitoneal for two weeks,28 days
same,median survival time,[7]; EriB 2.5 mg/kg intraperitoneal for two weeks,32 days
same,spleen size versus untreated mice,"[7]; EriB intraperitoneal, 20 days",obviously smaller
same,cell level of ROS compared with untreated cells,Kasumi-1 cells [2]; 0.5 μM EriB alone for 2 hours,about two
same,concentration that inhibits the growth of the cells,[8],0.2 to 2 µM
same,IC50,HL60 cells,1000 nM
same,"NF-κB activation (DNA binding, EMSA)",NF-κB [9],can block NF-κB activation
same,Bcl-2 protein and mRNA levels,Bcl-2,have decreased
same,cell inhibition,[10],more than 60%
same,TNF-α-induced P65 translocation into nucleus,NF-κB (P65),significantly prevent
same,"induction of differentiation (CD11b, CD13, CD14, CD33, CD34, CD64)",Kasumi-1 cells [11],did not induce differentiation
same,AML1-ETO fusion protein level,AML1-ETO fusion protein,AML1-ETO degradation
same,tumor size versus control group,Kasumi-1 cells [12],significantly reduce tumor size
same,mitochondrial transmembrane potential,"Kasumi-1 cells [3]; EriB 24 and 48 hours, time and dose dependent",decreased significantly
same,annexin V-positive cells proportion,Kasumi-1 cells [1]; 48 hours,88.6%
